From patent EP4617273A1, “FUSED TRICYCLIC PARP1 INHIBITOR, PREPARATION METHOD THEREFOR, AND USE THEREOF” (Haihe Biopharma Co., Ltd., priority 2022, dated 2024) come the findings set out here.

The target in the first test is T1, Recombinant human PARP1 protein (Homo sapiens, UniProt P09874). In words: biochemical.
T1 sequence (P09874 whole entry): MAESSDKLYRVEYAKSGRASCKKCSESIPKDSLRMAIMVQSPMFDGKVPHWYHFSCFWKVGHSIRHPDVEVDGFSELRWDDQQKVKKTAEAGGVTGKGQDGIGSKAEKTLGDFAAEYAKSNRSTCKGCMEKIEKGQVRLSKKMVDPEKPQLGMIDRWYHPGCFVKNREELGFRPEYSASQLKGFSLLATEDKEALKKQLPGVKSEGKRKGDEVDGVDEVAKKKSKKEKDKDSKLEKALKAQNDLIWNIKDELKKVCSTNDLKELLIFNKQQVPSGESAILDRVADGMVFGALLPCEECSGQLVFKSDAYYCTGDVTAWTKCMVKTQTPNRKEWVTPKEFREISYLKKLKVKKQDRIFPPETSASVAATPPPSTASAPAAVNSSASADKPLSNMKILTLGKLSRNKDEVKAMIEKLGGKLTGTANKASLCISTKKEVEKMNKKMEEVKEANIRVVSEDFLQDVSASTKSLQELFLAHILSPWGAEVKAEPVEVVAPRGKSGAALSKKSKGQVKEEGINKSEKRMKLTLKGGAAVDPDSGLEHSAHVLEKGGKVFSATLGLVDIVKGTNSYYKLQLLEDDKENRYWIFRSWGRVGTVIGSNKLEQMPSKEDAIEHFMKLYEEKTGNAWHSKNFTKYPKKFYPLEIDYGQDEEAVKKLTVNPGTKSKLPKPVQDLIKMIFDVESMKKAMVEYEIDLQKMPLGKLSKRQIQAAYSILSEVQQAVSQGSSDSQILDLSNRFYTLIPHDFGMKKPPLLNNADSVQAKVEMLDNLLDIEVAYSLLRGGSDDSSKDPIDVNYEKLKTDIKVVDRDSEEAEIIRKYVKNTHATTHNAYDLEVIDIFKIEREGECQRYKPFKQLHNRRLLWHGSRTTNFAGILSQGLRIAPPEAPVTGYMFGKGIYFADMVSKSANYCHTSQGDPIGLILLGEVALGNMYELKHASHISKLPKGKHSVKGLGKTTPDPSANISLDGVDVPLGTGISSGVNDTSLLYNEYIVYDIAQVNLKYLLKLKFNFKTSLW
Conditions: not given
As to `CNC(=O)c1ccc(N2CCN(Cc3ccc4c(c3F)NC(=O)N3C4=NC[C@@H]3C)CC2)c(F)n1` [Compound 137], the half-maximal inhibitory concentration (IC50) amounted to 1.8 nM.
Still for that read-out and setting: under `CNC(=O)c1ccc(N2CCN(Cc3ccc4c(c3F)NC(=O)N3CC[C@H](C)N=C43)CC2)c(F)n1` [Compound 142] stands 5.6 nM; under `CNC(=O)c1ccc(N2CCN(Cc3ccc4c(c3F)NC(=O)N3CC(C)CN=C43)CC2)c(F)n1` (stereo not drawn) [Compound 144], 5.2 nM.
For `CNC(=O)c1ccc(N2CCN(Cc3ccc4c(c3F)NC(=O)N3C[C@H](F)CN=C43)CC2)c(F)n1` [Compound 147], the IC50 stood at 1 nM.
On the same count and under the same terms, under `CNC(=O)c1ccc(N2CCN(Cc3ccc4c(c3F)NC(=O)N3C[C@@H](F)CN=C43)CC2)c(F)n1` [Compound 149] stands 1.6 nM.
Still for that read-out and setting: under `CNC(=O)c1ccc(N2CCN(Cc3ccc4c(c3F)NC(=O)N3C4=NCCC3C)CC2)c(F)n1` (stereo not drawn) [Compound 150] stands 17.6 nM; under `CNC(=O)c1ccc(N2CCN(Cc3ccc4c(c3F)NC(=O)N3C4=NC[C@@H]3C)CC2)c(C)n1` [Compound 155], 1.46 nM; under `CNC(=O)c1ccc(N2CCN(Cc3ccc4c(c3F)NC(=O)N3CC(F)(F)CN=C43)CC2)c(Cl)n1` [Compound 159], 0.47 nM.
Same read-out and setting: under `CNC(=O)c1ccc(N2CCN(C(C)c3ccc4c(c3F)NC(=O)N3CC5(CC5)N=C43)CC2)c(F)n1` (stereo not drawn) [Compound 173] stands 0.95 nM.
For `O=C(NC1CC1)c1ccc(N2CCN(Cc3ccc4c(c3F)NC(=O)N3CCCN=C43)CC2)c(F)n1` [Compound 182], the IC50 was 1.83 nM.
On the same count and under the same terms, under `CCNC(=O)c1ccc(N2CCN(Cc3ccc4c(c3F)NC(=O)N3C[C@@H](C)N=C43)CC2)c(Cl)n1` [Compound 185] stands 1.09 nM.
Regarding `N#Cc1ccc(N2CCN(Cc3ccc4c(c3F)NC(=O)N3CCCN=C43)CC2)nc1` [Compound 188], the IC50 was 1.56 nM.
On the same count and under the same terms, under `CNC(=O)c1ccc(N2CCN(Cc3ccc4c(c3)NC(=O)N3CCCN=C43)CC2)c(Cl)n1` [Compound 191] stands 0.9 nM.
The same measure, in the same setting: under `C[C@@H]1CN2C(=O)Nc3c(ccc(CN4CCN(c5ccc(C(=O)NC6CC6)nc5Cl)CC4)c3F)C2=N1` [Compound 201] stands 1.2 nM.

The target of another test is T2, recombinant human PARP2 protein (Homo sapiens, UniProt Q9UGN5).
T2 construct: purchased BPS 80502
T2 sequence (Q9UGN5 whole entry): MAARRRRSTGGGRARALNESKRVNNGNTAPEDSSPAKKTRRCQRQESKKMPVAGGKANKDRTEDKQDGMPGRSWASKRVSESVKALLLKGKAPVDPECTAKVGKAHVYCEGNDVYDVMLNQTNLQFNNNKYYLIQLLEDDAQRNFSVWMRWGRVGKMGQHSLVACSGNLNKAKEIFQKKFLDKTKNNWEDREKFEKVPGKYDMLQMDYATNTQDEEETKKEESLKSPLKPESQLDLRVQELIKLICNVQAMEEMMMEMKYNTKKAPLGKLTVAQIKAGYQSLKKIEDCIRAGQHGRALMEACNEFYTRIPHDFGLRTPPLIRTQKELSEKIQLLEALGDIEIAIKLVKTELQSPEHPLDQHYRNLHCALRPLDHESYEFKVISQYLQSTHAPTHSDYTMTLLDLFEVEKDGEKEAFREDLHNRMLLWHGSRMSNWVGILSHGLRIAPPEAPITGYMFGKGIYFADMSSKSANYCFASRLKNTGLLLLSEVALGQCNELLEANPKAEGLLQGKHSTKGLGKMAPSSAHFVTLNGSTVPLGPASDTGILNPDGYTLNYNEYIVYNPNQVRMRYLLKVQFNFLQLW
Kind of test: PARP2 enzymatic inhibitory activity, histone substrate, chemiluminescent ELISA. Type of test: biochemical.
Conditions: not given
As for the experimental part: The PARP2 inhibitory activity assay was performed as in Experimental Method 1, except that PARP1 solution in step 2 of "3. Ribosylation reaction" was replaced with recombinant human PARP2 solution, and 500 µM NAD+ was not added in step 5 of the ribosylation reaction. Table 1. IC50 for inhibition of PARP1/2 enzymes by compounds of the present invention
`CNC(=O)c1ccc(N2CCN(Cc3ccc4c(c3F)NC(=O)N3C[C@@H](F)CN=C43)CC2)c(F)n1` [Compound 149]: the IC50 was determined as 893 nM.

Still in this test, the particulars now being: histone substrate, 500 µM NAD+ not added; read-out: PARP2 IC50.
On to `CNC(=O)c1ccc(N2CCN(Cc3ccc4c(c3F)NC(=O)N3C4=NC[C@@H]3C)CC2)c(F)n1` [Compound 137], for which the IC50 stood at 1400 nM.
Same read-out and setting: under `CNC(=O)c1ccc(N2CCN(Cc3ccc4c(c3F)NC(=O)N3CC[C@H](C)N=C43)CC2)c(F)n1` [Compound 142] stands more than 10000 nM; under `CNC(=O)c1ccc(N2CCN(Cc3ccc4c(c3F)NC(=O)N3CC(C)CN=C43)CC2)c(F)n1` (stereo not drawn) [Compound 144], more than 10000 nM.
For the compound `CNC(=O)c1ccc(N2CCN(Cc3ccc4c(c3F)NC(=O)N3C[C@H](F)CN=C43)CC2)c(F)n1` [Compound 147], the IC50 amounted to 278 nM.
The same measure, in the same setting: under `CNC(=O)c1ccc(N2CCN(Cc3ccc4c(c3F)NC(=O)N3C4=NCCC3C)CC2)c(F)n1` (stereo not drawn) [Compound 150] stands more than 10000 nM.
On to `CNC(=O)c1ccc(N2CCN(Cc3ccc4c(c3F)NC(=O)N3C4=NC[C@@H]3C)CC2)c(C)n1` [Compound 155], for which the IC50 was 893 nM.
Consider `CNC(=O)c1ccc(N2CCN(Cc3ccc4c(c3F)NC(=O)N3CC(F)(F)CN=C43)CC2)c(Cl)n1` [Compound 159], for which the IC50 turned out to be 97.5 nM.
For the compound `CNC(=O)c1ccc(N2CCN(C(C)c3ccc4c(c3F)NC(=O)N3CC5(CC5)N=C43)CC2)c(F)n1` (stereo not drawn) [Compound 173], the IC50 is 514 nM.
On to `O=C(NC1CC1)c1ccc(N2CCN(Cc3ccc4c(c3F)NC(=O)N3CCCN=C43)CC2)c(F)n1` [Compound 182], for which the IC50 stood at 547 nM.
On the same count and under the same terms, under `CCNC(=O)c1ccc(N2CCN(Cc3ccc4c(c3F)NC(=O)N3C[C@@H](C)N=C43)CC2)c(Cl)n1` [Compound 185] stands 894 nM; under `N#Cc1ccc(N2CCN(Cc3ccc4c(c3F)NC(=O)N3CCCN=C43)CC2)nc1` [Compound 188], 728 nM.
The same measure, in the same setting: under `CNC(=O)c1ccc(N2CCN(Cc3ccc4c(c3)NC(=O)N3CCCN=C43)CC2)c(Cl)n1` [Compound 191] stands 296 nM; under `C[C@@H]1CN2C(=O)Nc3c(ccc(CN4CCN(c5ccc(C(=O)NC6CC6)nc5Cl)CC4)c3F)C2=N1` [Compound 201], 1550 nM.

Another test has as its system MDA-MB-436 cells. Kind of test: MDA-MB-436 cell proliferation inhibition test (CellTiter-Glo, 7 days). To be noted: Homo sapiens, MDA-MB-436, 168 h, 7 days incubation. In kind it is cell-based. As for the experimental part:
Human breast cancer MDA-MB-436 (purchased from ATCC) cells were cultured in DMEM medium (supplemented with 10% fetal bovine serum with 1% dual antibody) at 37 °C, 5% CO2. The cells were taken from the logarithmic growth phase, digested and prepare cell suspension witha certain concentration, which was inoculated into 96-well plates. 100 µL of cell suspension was added to each well of the 96-well plates, incubated overnight, then different concentrations of compounds were added, and the cells were incubated in the cell culture incubator for 7 days. At the end of incubation, 50 µL of CellTiter-Glo reagent was added to each well, mixed with a microplate and shaked for 2 min, and left at rt for 60 min, then the fluorescence value was read with a Spark® multimode microplate reader. […] Table 2. proliferation inhibitory activity of compounds of the present invention on MDA-MB-436 cells
For the compound `CNC(=O)c1ccc(N2CCN(Cc3ccc4c(c3F)NC(=O)N3C4=NC[C@@H]3C)CC2)c(F)n1` [Compound 137], the IC50 turned out to be 22.6 nM.
The same measure, in the same setting: under `CNC(=O)c1ccc(N2CCN(Cc3ccc4c(c3F)NC(=O)N3C[C@H](F)CN=C43)CC2)c(F)n1` [Compound 147] stands 2.1 nM.
On the same count and under the same terms, under `CNC(=O)c1ccc(N2CCN(Cc3ccc4c(c3F)NC(=O)N3CC(F)(F)CN=C43)CC2)c(Cl)n1` [Compound 159] stands 2.2 nM.

For the next test, the target named is T1, Recombinant human PARP1 protein. Kind of test: PARP1 enzymatic inhibitory activity, histone substrate, chemiluminescent ELISA. Particulars: PARP2 IC50 over PARP1 IC50.
Description: The PARP1/2 inhibitory activity of the compounds of the present invention was tested in an assay using Histone as a substrate.
Aim of the assay: to test the PARP1/2 enzymatic activity inhibition IC50 values of the compounds of the present application according to established experimental methods.
1. Compound Configuration: Dilute the compounds with DMSO in 384-well plates to a 1000-fold final concentration and set aside.
1) Dilute Histone with PBS, add 25uL of Histone mixture to each well and incubate for 2 h. 2) Wash each well 5 times using PBST solution. Remove the solution with a clean paper towel.3) Add 75 uL of Blocking buffer to each well and incubate for 1 h at rt. 4) Wash each well 5 times using PBST solution. Remove the solution with a clean paper towel.
2) Use 1× Assay buffer to prepare 2.5× final concentration of PARP1 solution. 3) Add 10 uL of enzyme solution to the compound wells and Max control wells; add 10 uL of 1× Assay buffer. […] 6) Centrifuge at 1000 rpm for 60 seconds and incubate at rt for 2 h. 7) Each well was washed 5 times with PBST solution. Remove the solution with a clean paper towel.
1) Prepare Streptavidin-HRP solution, add 25 µL to each well, centrifuge at 1000 rpm for 60 sec, and incubate at rt for 30 min. 2) Wash each well 5 times using PBST solution. Remove the solution with a clean paper towel. 3) Add 50 µL of ELISA Chemiluminescent Substrate per well. 4) Centrifuge at 1000 rpm for 60 seconds and read with EnSight after 5 min.
The inhibition rate was calculated using the following formula: % inhibition = (max signal - compound signal) / (max signal - min signal) × 100, where 'min signal' is the mean value of negative control wells and 'max signal' is the mean value of positive control wells.
Fitting the quantitative effect curve: using the log value of the concentration as the X-axis and the percentage inhibition as the Y-axis; using the log(inhibitor) vs. response-variable slope method in software GraphPadPrism5 to fit the quantitative effect curve to calculate the IC50 value for the inhibition of the enzyme activity by the compounds of the present invention. The fitting formula is: Y=Bottom+ (Top-Bottom)/(1+10^((logIC50-X)*HillSlope)).
For the compound `CNC(=O)c1ccc(N2CCN(Cc3ccc4c(c3F)NC(=O)N3C4=NC[C@@H]3C)CC2)c(F)n1` [Compound 137], the “PARP1/2 Fold selectivity” value is listed as 466.3.
On the same count and under the same terms, under `CNC(=O)c1ccc(N2CCN(Cc3ccc4c(c3F)NC(=O)N3CC[C@H](C)N=C43)CC2)c(F)n1` [Compound 142] stands more than 1756; under `CNC(=O)c1ccc(N2CCN(Cc3ccc4c(c3F)NC(=O)N3CC(C)CN=C43)CC2)c(F)n1` (stereo not drawn) [Compound 144], more than 1923.
Same read-out and setting: under `CNC(=O)c1ccc(N2CCN(Cc3ccc4c(c3F)NC(=O)N3C[C@H](F)CN=C43)CC2)c(F)n1` [Compound 147] stands 277.7; under `CNC(=O)c1ccc(N2CCN(Cc3ccc4c(c3F)NC(=O)N3C[C@@H](F)CN=C43)CC2)c(F)n1` [Compound 149], 557.9; under `CNC(=O)c1ccc(N2CCN(Cc3ccc4c(c3F)NC(=O)N3C4=NCCC3C)CC2)c(F)n1` (stereo not drawn) [Compound 150], more than 568.
As for `CNC(=O)c1ccc(N2CCN(Cc3ccc4c(c3F)NC(=O)N3C4=NC[C@@H]3C)CC2)c(C)n1` [Compound 155], the “PARP1/2 Fold selectivity” value is recorded as 611.4.
Still for that read-out and setting: under `CNC(=O)c1ccc(N2CCN(Cc3ccc4c(c3F)NC(=O)N3CC(F)(F)CN=C43)CC2)c(Cl)n1` [Compound 159] stands 207.4.
The same measure, in the same setting: under `CNC(=O)c1ccc(N2CCN(C(C)c3ccc4c(c3F)NC(=O)N3CC5(CC5)N=C43)CC2)c(F)n1` (stereo not drawn) [Compound 173] stands 541.5.
Still for that read-out and setting: under `O=C(NC1CC1)c1ccc(N2CCN(Cc3ccc4c(c3F)NC(=O)N3CCCN=C43)CC2)c(F)n1` [Compound 182] stands 299.
Take `CCNC(=O)c1ccc(N2CCN(Cc3ccc4c(c3F)NC(=O)N3C[C@@H](C)N=C43)CC2)c(Cl)n1` [Compound 185]: the “PARP1/2 Fold selectivity” value came out at 820.2.
Still for that read-out and setting: under `N#Cc1ccc(N2CCN(Cc3ccc4c(c3F)NC(=O)N3CCCN=C43)CC2)nc1` [Compound 188] stands 466.3; under `CNC(=O)c1ccc(N2CCN(Cc3ccc4c(c3)NC(=O)N3CCCN=C43)CC2)c(Cl)n1` [Compound 191], 323.
On the same count and under the same terms, under `C[C@@H]1CN2C(=O)Nc3c(ccc(CN4CCN(c5ccc(C(=O)NC6CC6)nc5Cl)CC4)c3F)C2=N1` [Compound 201] stands 1324.
